Measurements taken from patent publication US20260224632A1, “USE OF A COMPOSITION COMPRISING A NEO-SYNTHESIZED EXTRACELLLAR MATRIX FOR THE TREATMENT OF CANCER, IN PARTICULAR FOR THE INHIBITION OF CANCER VIABILITY, MIGRATION, AND PROLIFERATION” (NOVADIP BIOSCIENCES, priority 2023, published 2026).

Key:
[1] = tested on: human bone marrow mesenchymal stem cells (hBM-MSCs); experiment: CCK-8 viability assay; assay type: cell-based; conditions: hBM-MSCs (non-tumor); 72 h; NVDM2 7 and 15 mg per well; doxorubicin 0.1 uM
Procedure: (§1) Doxorubicin (0.1 uM) was used as a positive control treatment and gelatin beads alone were used for comparison with NVDM2 treatment. All treatments were carried out in 96-well plates in transwells. The compositions of the invention (NVDM2) were administered in two different doses: 7 mg and 15 mg per well. The viability was measured using CCK-8 viability bioassay at 72 hours after administration. […] Data represent the mean±s.d. values of % cell viability upon treatment normalized to the respective untreated sample. Blue line represents 100% of viability. Statistical significances between treated vs untreated samples at the respective time point were tested by ANOVA-I. *, p≤0.05; **; p≤0.01, ***; p≤0.001; ns, not significant. Blue dots: values of individual batches (biological replicates). Each chart represents the average value of the data from all batches tested. DS: lyophilized non irradiated powder of NVDM2; DP: lyophilized powder of NVDM2 after irradiation.
(§2) For this assay the Cell Counting Kit-8 Kit was used (Sigma-Aldrich). […] This coloured product (formazan) is measured using a spectrophotometer. […]
(§3) After O/N incubation, the medium was removed, and the cells were incubated for 72 h in the presence of the different doses of the test item. […] The plate was incubated at 37° C. for 2 hour and then absorbance at 450 nm was measured.

[2] = tested on: adult human dermal fibroblasts (HDFa); experiment: CCK-8 viability assay; assay type: cell-based; conditions: HDFa (non-tumor); 72 h; NVDM2 7 and 15 mg per well; doxorubicin 0.1 uM
Procedure: as §1, §2, §3

With `COc1cccc2c1C(=O)c1c(O)c3c(c(O)c1C2=O)C[C@@](O)(C(=O)CO)C[C@@H]3O[C@H]1C[C@H](N)[C@H](O)[C@H](C)O1` [doxorubicin, Doxorubicin] the “% cell viability normalized to untreated (CCK-8)” value [1] was “significant inhibitory impact” and the “% cell viability normalized to untreated (CCK-8)” value [2] was “significant inhibitory impact”.
